Assay results published in PubChem BioAssay (NCI).
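Interpolation was linear, between the two tested concentrations surrounding the appropriate level; five concentrations were tested over 48 hours in 96-well plates. Here, GI50 denotes the concentration required for 50% inhibition of growth. TGI is the concentration that stops growth completely.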

Key:
Test in all cases: inhibition of tumour cell growth, NCI panel, 48 h
[1] = tested on: CAKI-1 renal
[2] = tested on: NCI-H460 lung
[3] = tested on: HS 578T breast
[4] = tested on: LOX IMVI melanoma
[5] = tested on: OVCAR-8 ovarian
[6] = tested on: SF-539 CNS
[7] = tested on: K-562 leukemia
[8] = tested on: SNB-19 CNS
[9] = tested on: RPMI-8226 leukemia
[10] = tested on: HOP-62 NSCLC

| Compound | GI50 [1] [µM] | TGI [1] [µM] | GI50 [2] [µM] | TGI [2] [µM] | GI50 [3] [µM] | TGI [3] [µM] | GI50 [4] [µM] | TGI [4] [µM] | GI50 [5] [µM] | TGI [5] [µM] | GI50 [6] [µM] | TGI [6] [µM] | GI50 [7] [µM] | TGI [7] [µM] | GI50 [8] [µM] | TGI [8] [µM] | TGI [9] [µM] | TGI [10] [µM] | GI50 [9] [µM] | GI50 [10] [µM] |
| --- | --- | --- | --- | --- | --- | --- | --- | --- | --- | --- | --- | --- | --- | --- | --- | --- | --- | --- | --- | --- |
| COC(=O)c1cc2c([nH]c3ccccc32)c(-c2nc3cc(N(S(=O)(=O)c4ccc(C)cc4)S(=O)(=O)c4ccc(C)cc4)c(OC)cc3cc2CO)n1 | > 100 | > 100 | > 100 | > 100 | 30.6 | > 100 | > 100 | > 100 | > 100 | > 100 | 56.1 | > 100 | > 100 | > 100 | 75 | > 100 | – | – | – | – |
| O=C1c2cccc3cc4ccccc4c(c23)C(=O)N1CCCNCCNCCCN1C(=O)c2cccc3cc4ccccc4c(c23)C1=O | – | 1.52 | – | 0.161 | – | 1.98 | – | – | – | 0.337 | – | 1.45 | – | 0.337 | – | 2.23 | 0.387 | 1.72 | – | – |
| CN(C)CCCn1c2c(c3ccc([N+](=O)[O-])cc3c1=O)C(=O)c1ccccc1-2 | 3.07 | 19.7 | 2.69 | 19.4 | 41.3 | > 100 | 2.87 | 13.3 | 17 | 49.4 | – | – | 6.05 | > 100 | 19.1 | > 100 | 19.3 | 20.8 | 3.46 | 5.67 |
| Cc1cc(N2CCOCC2)nc(N(CCNc2ccnc3cc(Cl)ccc23)Cc2cccs2)n1 | – | – | – | – | 2.24 | 5.45 | 1.72 | 3.18 | 1.96 | 4.06 | 1.81 | 3.32 | 1.67 | 3.98 | 4.24 | 76.2 | 4.04 | 6.52 | 1.87 | 2.44 |
| CNCc1ccc(C)c(NC(=O)c2ccc(Nc3nc(-c4ccccc4)c4ccccc4n3)cc2)c1 | 1.87 | 3.57 | 1.8 | 3.38 | 1.76 | 4.17 | 1.67 | 3.13 | 1.85 | 3.93 | 1.82 | 3.46 | 1.91 | 4.54 | – | – | – | 3.67 | – | 1.96 |
| C[As](C)SCC(COC(=O)c1ccccc1)OC(=O)c1ccccc1 (stereo unspecified) | < 0.0181 | 0.0499 | 2.21 | 12.1 | 0.627 | 4.45 | – | – | 0.225 | 0.667 | 0.271 | 0.775 | < 0.0205 | 1.22 | 3.63 | 19.6 | 0.357 | 1.86 | 0.0264 | 0.742 |
| COc1ccc(/C=C2\CN(Cc3cn(CCCNc4ccnc5cc(Cl)ccc45)nn3)C/C(=C\c3ccc(OC)cc3)C2=O)cc1 | – | – | 1.86 | 3.79 | 6.27 | 29.7 | 3.98 | 18.5 | 2.06 | 5.64 | 13.9 | 26.8 | 2.65 | 11.7 | 15.7 | 36.1 | 10.3 | 35.5 | 2.22 | 19.4 |
